Patent publication US6818620B2, “Synthetic compounds and compositions with enhanced cell binding” (The Regents of the University of California, priority 1991, dated 2004)
Entries after “also recorded” stand apart in the source; their conditions may differ. Blank lines part the entries; values can stand above or below the substance they belong to. No end group written: not given here.

Tests used:
[1] = system: fibroblast cells from 19-week fetal human dermis; assay: Binding of fibroblast cells to collagen- or peptide-coated glass coverslips and dishes (Example 1); assay type: cell-based; conditions: for Concentration of Cells (Relative Binding of Cells After 15 Minutes): coverslips coated with 50 μl of 1 mg/ml solution, approximately 100,000 fibroblast cells
Method: All media and supplies for tissue culture were obtained from University of California San Francisco Tissue Culture Facility. Cycloheximide was purchased from Sigma Biochemicals, St. Louis, Mo. Rat tail tendon collagen was purified to homogeneity and characterized in our laboratory using published methods. Tissue culture dishes (35 mm diameter, Falcon Plastics) were coated with collagen dissolved in 0.01 N acetic acid to a concentration of 10 μg/ml. The dishes were allowed to air dry overnight under ultraviolet light to maintain sterility. Primary cultures of fibroblast cells from 19-week fetal human dermis were obtained. The cultures were maintained in Eagles minimum essential medium with Earle's salts supplemented with 10% fetal bovine serum. All cells used were in the second passage and were obtained from confluent cultures. Prior to release and dispersion with trypsin, the cells were rinsed three times with phosphate buffered saline. The cell layers were exposed for two minutes to 0.05% trypsin, 0.02% NaEDTA in phosphate buffered saline, and rinsed with serum free medium. Glass coverslips (12-15) were washed in a cleaning solution overnight then rinsed with large amounts of distilled water. The coverslips were then sterilized by drying between sheets of filter paper in an oven at high temperature. The coverslips were then placed in small culture dishes under sterile conditions. A solution of collagen in acetic acid (1 mg/ml) was prepared. Fifty microliters of solution was placed on each of four coverslips, which were then dried in air overnight. A solution of the peptide in acetic acid (1 mg/ml) was prepared. Four coverslips were treated with 50 μl of the solution and then dried as described above. Approximately 100,000 fibroblast cells were pipetted onto four control coverslips and dishes, four collagen coated coverslips and dishes, and four peptide coated coverslips and dishes. After 15 minutes, excess medium containing floating cells was removed from each dish. Fresh medium was added and the dishes were examined under a microscope to determine the extent of binding of cells to the respective coverslips. If the number of bound cells appeared to be different, an assay for DNA in the cells attached to each coverslip was performed. The cells were counted using a hemocytometer.

[2] = system: binding of cells to collagen; assay: Inhibition of cell binding (attachment) to collagen substrates by peptides added to the medium (Example 2); assay type: cell-based, human; conditions: for % Inhibition of Cell Attachment / % of Maximal Cell Attachment: collagen substrates; for effect on the binding of cells to collagen (in words): equimolar concentrations of several peptides
Method: All media and supplies for tissue culture were obtained from University of California San Francisco Tissue Culture Facility. Cycloheximide was purchased from Sigma Biochemicals, St. Louis, Mo. Rat tail tendon collagen was purified to homogeneity and characterized in our laboratory using published methods. Tissue culture dishes (35 mm diameter, Falcon Plastics) were coated with collagen dissolved in 0.01 N acetic acid to a concentration of 10 μg/ml. The dishes were allowed to air dry overnight under ultraviolet light to maintain sterility.
Primary cultures of fibroblast cells from 19-week fetal human dermis were obtained. The cultures were maintained in Eagles minimum essential medium with Earle's salts supplemented with 10% fetal bovine serum. All cells used were in the second passage and were obtained from confluent cultures. Prior to release and dispersion with trypsin, the cells were rinsed three times with phosphate buffered saline. The cell layers were exposed for two minutes to 0.05% trypsin, 0.02% NaEDTA in phosphate buffered saline, and rinsed with serum free medium.
Collagen related, but non-inventive peptides, (Pro-Pro-Gly)10 and (Pro-Hyp-Gly)10 (wherein Hyp is hydroxy-proline), were obtained from Peninsula Laboratory, Belmont, Calif. Polyproline was purchased from Sigma Biochemicals, St. Louis, Mo. Dynorphin 1-13 and human preangiotensinogen 1-14 were purchased from Bachem, Torrance, Calif. Three different fibronectin related peptide sequences were also obtained from Bachem and were used without further analysis.
The inventive peptide (SEQ ID NO:1) was synthesized as described in Example 1 and the same procedures and conditions of Example 1 were used herein.
In this experiment to examine the effect of various additives on binding, the additives were added in the medium containing the cells before being transferred to the dishes for the binding assay. It was observed that cell binding to collagen proceeds rapidly in the beginning of the experiment but then slows down after approximately 30 minutes and approximately 70-80% of the cell binding in the absence of a peptide occurs during this time. The effect of the peptide inhibitor on the initial rate of the binding reaction between cells and collagen was examined. The effects of various conditions on cell binding to collagen after 30 minutes were usually compounded.
All peptides used had small inhibitory effects on cell binding, although none reached the level of inhibition observed with the inventive peptide. […] Under the conditions of these experiments, polyproline and (PPG)10 exist as single chains in polyproline conformation whereas (P-Hyp-G)10 is a triple helix. The behavior of dynorphin 1-13 and preangio-tensinogen 1-14, peptides similar in size to the inventive peptide, on cell binding was also examined.

[3] = system: cells; assay: Relative cell-binding activity of synthetic peptides (relative to the SEQ ID NO:1 peptide / P-15, or to collagen); assay type: cell-based; conditions: for Relative Cell-Binding Activity: relative to the inventive peptide illustrated in Examples 1 and 2 (SEQ ID NO:1)
Method: Several more synthetic peptides were prepared and tested for cell binding activity (relative to the SEQ ID NO:1 peptide) all of which have the β-bend feature and which have excellent cell binding activity.
The relative efficiencies of some synthetic peptides of this invention for cell-binding activity (relative to the inventive peptide illustrated in Examples 1 and 2) are set out in Table 4.

[4] = system: peripheral blood CD4 and CD8 lymphocytes; assay: Inhibition of T-cell binding to collagen-coated dishes (Example 7); assay type: cell-based; conditions: rat tail type I collagen-coated dishes, serum free medium
Method: Cultured T-cells were incubated in collagen-coated dishes in serum free medium, in the presence and absence of inventive peptides. […] Inhibition was examined at several concentrations and times. Maximal inhibition by the peptides occurred at 30 minutes at 37 ? C at a concentration of 35 μM. Thus, the molecular site on type I collagen involved in the interaction with T-cells appears to be the same as involved in fibroblast binding.

[5] = system: fibroblast cells; assay: Fibroblast growth and migration into agarose gel containing peptide (Example 3); assay type: cell-based; conditions: 100 μg peptide in agarose gel (2 mg/ml); 100,000-200,000 fibroblast cells; 72 hours after plating
Method: Referring to FIGS. 1 and 2, a prior art agarose gel was prepared with an agarose concentration of 2 mg/ml and between 100,000-200,000 fibroblast cells were placed on the gel surface. The agarose gel had been prepared with a suitable fibroblast cell growth medium and the cells placed on the agarose gel were treated with growth medium; however, the cells died within 48 hours, as is illustrated by the FIG. 1 photograph. […] The fibroblast population continued to grow rapidly until cells filled the lattice of the gel.
Different concentrations of the inventive peptides in hydrogels were studied. […] Different types of cells appear to prefer different inventive peptide concentrations in hydrogels, probably due to differences in receptor densities, but in general about 100 μg/ml will be effective.

[6] = system: dermal fibroblasts; assay: Induction of metalloproteinases and osteodifferentiation in dermal fibroblasts; assay type: cell-based
Text: This activity is useful for resolving fibrosis. […] This is confirmed by the induction of the following genes: type I collagen, collagenase, alkaline phosphatase, osteonectin, transforming growth factor β (TGF-β), and osteogenin (bone morphogenic protein, […]). These studies confirm that the inventive peptides mimic the biological activity of collagen by binding to specific receptors and inducing biochemical processes characteristic of those induced by collagen itself.

[7] = system: cells; assay: Relative cell-binding activity of synthetic peptides (relative to the SEQ ID NO:1 peptide / P-15, or to collagen); assay type: cell-based

Substance: Collagen: Rat tail tendon collagen purified to homogeneity [reference compound]
- Concentration of Cells (Relative Binding of Cells After 15 Minutes) ([1]; 15 minutes): 8.59

Substance: Dynorphin 1-13 (YGGFLRRIRPKLK)
- % Inhibition of Cell Attachment ([2]; peptide 35 × 10^−6M): 19%
- % of Maximal Cell Attachment ([2]; peptide 35 × 10^−6M): 81%
- effect on the binding of cells to collagen (in words) [2]: did not affect the binding of cells to collagen to the extent shown by the inventive peptide

Substance: FGIAGF [SEQ ID NO:5]
- cell binding activity compared with P-15 region / SEQ ID NO:1 peptide (in words) [3]: cell binding activity comparable to that of the peptides of SEQ ID NO: 1, 2, and 3
- Relative Cell-Binding Activity [3]: 87

Substance: GPQGIAGQR [SEQ ID NO:2]
- cell binding activity compared with P-15 region / SEQ ID NO:1 peptide (in words) [3]: equally as active as the entire P-15 region
- Relative Cell-Binding Activity [3]: 100
- inhibition of interactions between T-cells and collagen [4]: markedly inhibited

- osteodifferentiation (induction of type I collagen, collagenase, alkaline phosphatase, osteonectin, TGF-β, BMP-7 genes) ([6]; in composites with hydroxyapatite, non-osteoblastic (dermal) fibroblasts): causes osteodifferentiation
Substance: GTPGPQGIAGQRGVV [SEQ ID NO:1]
- increase in cell binding over collagen-coated dishes ([1]; 15 minutes): 40%
- increase in cell binding over the control (no collagen or peptide) dishes ([1]; 15 minutes): 60%
- Concentration of Cells (Relative Binding of Cells After 15 Minutes) ([1]; 15 minutes): 11.05
- potency relative to collagen in binding cells to glass or to polystyrene ([1]; various other similar studies): at least twice as potent as collagen
- % Inhibition of Cell Attachment ([2]; peptide 7.2 × 10^−6M): 85%
- % of Maximal Cell Attachment ([2]; peptide 7.2 × 10^−6M): 15%
- % Inhibition of Cell Attachment ([2]; peptide 36 × 10^−6M): 88%
- % of Maximal Cell Attachment ([2]; peptide 36 × 10^−6M): 12%
- effect on the binding of cells to collagen (in words) [2]: potent inhibitor of the binding of cells to collagen
- fibroblast growth and migration into agarose gel [5]: the cells not only grew, but actually migrated into the gel itself
- inhibition of interactions between T-cells and collagen [4]: markedly inhibited
- induction of metalloproteinases ([6]; dermal fibroblasts): induces metalloproteinases

Substance: Gln-Gly-Ile-Ala-Gly (QGIAG; OTHER INFORMATION: synthetic peptide) [SEQ ID NO:8]
- cell-binding activity (relative to the SEQ ID NO:1 peptide) [3]: 42%
- cell binding enhancement with respect to collagen (in words) [7]: slightly enhanced with respect to collagen, but not significantly enhanced; also recorded: not significantly enhanced with respect to collagen

Substance: Gly-Ile-Ala-Gly (FGIAGF; OTHER INFORMATION: synthetic peptide) [SEQ ID NO:9]
- cell binding enhancement with respect to collagen (in words) [7]: not significantly enhanced with respect to collagen

Substance: Gly—Ile—Ala—Gly—Gln (GIAGQ; OTHER INFORMATION: synthetic peptide) [SEQ ID NO:6]
- cell-binding activity (relative to the SEQ ID NO:1 peptide) [3]: 70%
- Relative Cell-Binding Activity [3]: 70

Substance: Polyproline
- % Inhibition of Cell Attachment ([2]; peptide 1.7 × 10^−6M): 10%
- % of Maximal Cell Attachment ([2]; peptide 1.7 × 10^−6M): 90%
- effect on the binding of cells to collagen (in words) [2]: did not significantly affect the binding of cells

Substance: QGAIAQ [SEQ ID NO:7]
- Relative Cell-Binding Activity [3]: 70

Substance: QGIAGQ [SEQ ID NO:3]
- cell binding activity compared with P-15 region / SEQ ID NO:1 peptide (in words) [3]: as active, or more active, than a peptide having the entire P-15 region
- Relative Cell-Binding Activity [3]: 120
- inhibition of interactions between T-cells and collagen [4]: markedly inhibited

Substance: QGIAGQR [SEQ ID NO:4]
- Relative Cell-Binding Activity [3]: 60

Substance: human preangiotensinogen 1-14 (DRVYIHPFHLVIHN)
- % Inhibition of Cell Attachment ([2]; peptide 35 × 10^−6M): 12%
- % of Maximal Cell Attachment ([2]; peptide 35 × 10^−6M): 88%
- effect on the binding of cells to collagen (in words) [2]: did not affect the binding of cells to collagen to the extent shown by the inventive peptide
